Here are results for four compounds from patent US6727232B2, “Nucleoside peptide antibiotics of AA-896” (Wyeth Holdings Corporation, priority 2001, dated 2004).

As a reminder, the MIC is the smallest concentration in the dilution series that meets the test's criterion for growth inhibition.

Common to all, as to assay: Broth dilution MIC
What all share (format): cell-based
(In general: Dilution methods test growth across graded concentrations, often in twofold steps.)

The test system of test [1] is S. aureus GC 1131. Particulars: Staphylococcus aureus, GC1131; S. aureus GC 1131; Mueller-Hinton broth, 18 hours at 35° C.; read-out: Antimicrobial Activity (MIC). The essentials: (§1)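 MIC reported as the lowest compound concentration preventing growth after 18 hours of incubation at 35° C., using serial dilutions in Mueller-Hinton broth inoculated with the test strain.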

Test [2] concerns CNS GC 4537. Particulars: CNS GC 4537; Mueller-Hinton broth, 18 hours at 35° C.; read-out: Antimicrobial Activity (MIC). The essentials:
as §1

The subject of test [3] is E. faecalis GC 842. Particulars: Enterococcus faecalis, GC842; E. faecalis GC 842; Mueller-Hinton broth, 18 hours at 35° C.; read-out: Antimicrobial Activity (MIC). The procedure, abridged: as §1
Test [4] relates to CNS GC 4547. Conditions: CNS GC 4547; Mueller-Hinton broth, 18 hours at 35° C.; read-out: Antimicrobial Activity (MIC). The essentials:
as §1

Test [5] concerns E. coli GC 4559. Particulars: Escherichia coli, GC4559; E. coli GC 4559; Mueller-Hinton broth, 18 hours at 35° C.; read-out: Antimicrobial Activity (MIC). The essentials:
as §1

Test [6] concerns M. morganii GC 4531. Particulars: Morganella morganii, GC4531; M. morganii GC 4531; Mueller-Hinton broth, 18 hours at 35° C.; read-out: Antimicrobial Activity (MIC). The procedure, abridged: as §1
Test [7] deals with S. aureus GC 4536. Conditions: Staphylococcus aureus, GC4536; S. aureus GC 4536; Mueller-Hinton broth, 18 hours at 35° C.; read-out: Antimicrobial Activity (MIC). The essentials: as §1
Test [8] deals with E. coli GC 2203. Conditions: Escherichia coli, GC2203; E. coli GC 2203; Mueller-Hinton broth, 18 hours at 35° C.; read-out: Antimicrobial Activity (MIC). The essentials: as §1
The test system of test [9] is CNS GC 4538. Particulars: CNS GC 4538; Mueller-Hinton broth, 18 hours at 35° C.; read-out: Antimicrobial Activity (MIC). The procedure, abridged:
as §1

For test [10], the system named is E. faecalis GC 2242. Conditions: Enterococcus faecalis, GC2242; E. faecalis GC 2242; Mueller-Hinton broth, 18 hours at 35° C.; read-out: Antimicrobial Activity (MIC). The essentials:
as §1

For test [11], the system named is P. aeruginosa GC 2214. Particulars: Pseudomonas aeruginosa, GC2214; P. aeruginosa GC 2214; Mueller-Hinton broth, 18 hours at 35° C.; read-out: Antimicrobial Activity (MIC). The essentials:
as §1

Test [12] concerns S. marcescens GC 4077. Conditions: Serratia marcescens, GC4077; S. marcescens GC 4077; Mueller-Hinton broth, 18 hours at 35° C.; read-out: Antimicrobial Activity (MIC). The essentials: as §1
The test system of test [13] is E. coli GC 3226. Conditions: Escherichia coli, GC3226; E. coli GC 3226; Mueller-Hinton broth, 18 hours at 35° C.; read-out: Antimicrobial Activity (MIC). The procedure, abridged: as §1
In test [14] the test system is P. aeruginosa GC 4532. Conditions: Pseudomonas aeruginosa, GC4532; P. aeruginosa GC 4532; Mueller-Hinton broth, 18 hours at 35° C.; read-out: Antimicrobial Activity (MIC). The essentials: as §1
The test system of test [15] is K. pneumoniae GC 4534. Particulars: Klebsiella pneumoniae, GC4534; K. pneumoniae GC 4534; Mueller-Hinton broth, 18 hours at 35° C.; read-out: Antimicrobial Activity (MIC). The procedure, abridged: as §1
For test [16], the system named is S. aureus GC 2216. Conditions: Staphylococcus aureus, GC2216; S. aureus GC 2216; Mueller-Hinton broth, 18 hours at 35° C.; read-out: Antimicrobial Activity (MIC). The procedure, abridged: as §1
The test system of test [17] is E. faecalis GC 4555. Particulars: Enterococcus faecalis, GC4555; E. faecalis GC 4555; Mueller-Hinton broth, 18 hours at 35° C.; read-out: Antimicrobial Activity (MIC). The essentials: as §1
Test [18] concerns E. cloacae GC 3783. Conditions: Enterobacter cloacae, GC3783; E. cloacae GC 3783; Mueller-Hinton broth, 18 hours at 35° C.; read-out: Antimicrobial Activity (MIC). The procedure, abridged: as §1
Test [19] has as its system E. coli GC 4560. Particulars: Escherichia coli, read-out: Antimicrobial Activity (MIC). The essentials:
as §1

In test [20] the test system is P. rettgeri GC 4530. Conditions: Providencia rettgeri, GC4530; P. rettgeri GC 4530; Mueller-Hinton broth, 18 hours at 35° C.; read-out: Antimicrobial Activity (MIC). The essentials:
as §1

In brackets after ≈: the same amount, converted by molar mass. Read-outs that look alike come from different tables or passages of the source.

In the case of `CCCCCNC[C@H]1OC(O[C@H](C(NCCCNC(=O)C(NC(=O)C(NC(=O)NC(C(=O)O)C(C)C)C2CCNC(=N)N2)C(O)C(C)C)C(=O)O)[C@H]2O[C@@H](n3ccc(=O)[nH]c3=O)[C@H](O)[C@@H]2O)[C@H](OC)[C@H]1O` (stereo partly drawn) [Example 18, 16-[(R)-{(2S,3S,4R,5R)-5-[2,4-Dioxo-3,4-dihydro-1 (2H)-pyrimidinyl]-3,4-dihydroxytetrahydro-2-furanyl}({(3R,4S,5R)-4-hydroxy-3-methoxy-5-[(pentylamino)methyl]tetrahydro-2-furanyl}oxy)methyl]-9-(1-hydroxy-2-methylpropyl)-6-(2-iminohexahydro-4-pyrimidinyl)-2-isopropyl-4,7,10-trioxo-3,5,8,11,15-pentaazaheptadecane-1,17-dioic Acid], the MIC in test [1], in test [2], in [3], in test [4], in test [5] and in test [6] was above 32 µg/mL in each case. The MIC in test [7], in test [8], in [9], in test [10], in test [11] and in test [12] was above 32 µg/mL throughout. The MIC in test [13], in [14], in test [15], in [16], in [17] and in test [18] was above 32 µg/mL in each case. For the same compound, the MIC in test [19] (GC4560, 18 h) was above 32 µg/mL; in [20], above 32 µg/mL.

For `CCCCCN1C(=O)C([C@@H](OC2O[C@H](CN)[C@H](O)[C@H]2OC)[C@H]2O[C@@H](n3ccc(=O)[nH]c3=O)[C@H](O)[C@@H]2O)N(CCCNC(=O)C(NC(=O)C(NC(=O)NC(C(=O)O)C(C)C)C2CCNC(=N)N2)C(O)C(C)C)C1=O` (stereo partly drawn) [Example 2, 14-[5-((R)-{[(3R,4S,5R)-5-(Aminomethyl)-4-hydroxy-3-methoxytetrahydro-2furanyl]oxy}{(2S,3S,4R,5R)-5-[2,4-dioxo-3,4-dihydro-1 (2H)-pyrimidinyl]-3,4-dihydroxytetrahydro-2-furanyl}methyl)-2,4-dioxo-3-pentyl-1-imidazolidinyl]-9-(1-hydroxy-2-methylpropyl)-6-(2-iminohexahydro-4-pyrimidinyl)-2-isopropyl-4,7,10-trioxo-3,5,8,11-tetraazatetradecan-1-oic acid], the MIC in test [1], in test [2], in test [3], in test [4], in test [5] and in test [6] was above 32 µg/mL in each case. In addition, the MIC in test [7], in test [8], in [9], in test [10], in test [11] and in test [12] was above 32 µg/mL throughout. The MIC in test [13], in test [14], in [15], in test [16], in [17] and in test [18] was above 32 µg/mL in each case. The minimum inhibitory concentration (MIC) in test [19] (GC4560, 18 h) was 32 µg/mL (≈ 30.7 µM); in [20], above 32 µg/mL.

With `CO[C@H]1C(O[C@H](C(C(=O)O)N(CCCCCCCCCCCC[N+]2(C)CCOCC2)CCCNC(=O)C(NC(=O)C(NC(=O)NC(C(=O)O)C(C)C)C2CCNC(=N)N2)C(O)C(C)C)[C@H]2O[C@@H](n3ccc(=O)[nH]c3=O)[C@H](O)[C@@H]2O)O[C@H](CN)[C@@H]1O` (stereo partly drawn) [Example 10, 4-[13-((2R)-2-{[(3R,4S,5R)-5-(Aminomethyl)-4-hydroxy-3-methoxytetrahydro-2-furanyl]oxy}-1-carboxy-2-{(2S,3S,4R,5R)-5-[2,4-dioxo-3,4-dihydro-1 (2H)-pyrimidinyl]-3,4-dihydroxytetrahydro-2-furanyl}ethyl)-26-carboxy-19-(1-hydroxy-2-methylpropyl)-22-(2-iminohexahydro-4-pyrimidinyl) -27-methyl-18,21,24-trioxo-13,17,20,23,25-pentaazaoctacos-1-yl]-4-methylmorpholin-4-ium], the MIC in test [1], in test [2], in [3], in [4], in test [5] and in test [6] was above 32 µg/mL throughout. Also, the minimum inhibitory concentration (MIC) in test [7], in test [8], in [9], in [10], in test [11] and in [12] was above 32 µg/mL each time. Further, the MIC in [13], in test [14], in [15], in test [16], in [17] and in test [18] was above 32 µg/mL throughout. Further, the MIC is 16 µg/mL in test [19] (GC4560, 18 h) and above 32 µg/mL in test [20].

`CCCCCCNC(=O)NC[C@H]1OC(O[C@H](C2C(=O)N(CCCCCC)C(=O)N2CCCNC(=O)C(NC(=O)C(NC(=O)NC(C(=O)O)C(C)C)C2CCNC(=N)N2)C(O)C(C)C)[C@H]2O[C@@H](n3ccc(=O)[nH]c3=O)[C@H](O)[C@@H]2O)[C@H](OC)[C@H]1O` (stereo partly drawn) [Example 14, 14-[5-((R)-{(2S,3S,4R,5R)-5-[2,4-Dioxo-3,4-dihydro-1 (2H)-pyrimidinyl]-3,4-dihydroxytetrahydro-2-furanyl}{[(3R,4S,5R)-5-({[(hexylamino)carbonyl]amino}methyl)-4-hydroxy-3-methoxytetrahydro-2-furanyl]oxy}methyl)-3-hexyl-2,4-dioxo-1-imidazolidinyl]-9-(1-hydroxy-2-methylpropyl)-6-(2-iminohexahydro-4-pyrimidinyl)-2-isopropyl-4,7,10-trioxo-3,5,8,11-tetraazatetradecan-1-oic Acid]: the MIC in [1] was 32 µg/mL (≈ 27.1 µM); in test [2], 32 µg/mL (≈ 27.1 µM); in [3], above 32 µg/mL; in test [4], 16 µg/mL (≈ 13.5 µM); in test [5], above 32 µg/mL; in [6] it was above 32 µg/mL. Besides, the MIC in [7] was 32 µg/mL (≈ 27.1 µM); in test [8], above 32 µg/mL; in test [9] it was 32 µg/mL (≈ 27.1 µM); in [10], 32 µg/mL (≈ 27.1 µM); in test [11] it was above 32 µg/mL; in test [12], above 32 µg/mL. The minimum inhibitory concentration (MIC) in test [13] is above 32 µg/mL; in test [14] it was above 32 µg/mL; in [15] it was above 32 µg/mL; in test [16] it was 32 µg/mL (≈ 27.1 µM); in test [17], above 32 µg/mL; in test [18], above 32 µg/mL. The MIC in test [19] (GC4560, E. coli GC 4560, Mueller-Hinton broth, 18 hours at 35° C.) is 32 µg/mL (≈ 27.1 µM); in [20], above 32 µg/mL.
